Source: PMC6433232, “Targeting mitochondria in cancer therapy could provide a basis for the selective anti-cancer activity” (PLoS ONE, 2019)
Read-outs that look alike come from different tables or passages of the source.

Tested on: primary acute myeloid leukemia (AML) cells obtained from patients
Test: Kinase inhibitor library screening with and without NSC130362, primary AML cells
Type: cell-based, Human
[1] = ratio of EC50 for inhibitor to EC50 for inhibitor/NSC130362 combination, NSC130362 10 μM, Screen N 1
[2] = ratio of EC50 for inhibitor to EC50 for inhibitor/NSC130362 combination, NSC130362 10 μM, Screen N 2
[3] = ratio of EC50 for inhibitor to EC50 for inhibitor/NSC130362 combination, NSC130362 10 μM, Screen N 3

EC50 decrease, fold (Screen N 1) [1] | EC50 decrease, fold (Screen N 2) [2] | EC50 decrease, fold (Screen N 3) [3] | Compound | EC50 decrease, fold (Screen N 1) | EC50 decrease, fold (Screen N 2) | EC50 decrease, fold (Screen N 3)
– | – | – | CN(C)C/C=C/C(=O)Nc1cc2c(Nc3ccc(F)c(Cl)c3)ncnc2cc1O[C@H]1CCOC1 [Afatinib (BIBW-2992)] | 0.5 fold | 1.2 fold | 18.4 fold
1.2 fold | 1.0 fold | 0.01 fold | Cc1ccc2nc(NCCN)c3ncc(C)n3c2c1 [BMS-345541] | – | – | –
– | 1.0 fold | – | Oc1ccc([C@H]2COc3cc(O)ccc3C2)cc1 [AUS-131] | – | – | –
1.1 fold | 1.0 fold | 266.4 fold | Nc1ncn([C@@H]2O[C@H](CO)[C@@H](O)[C@H]2O)c(=O)n1 [Azacytidine] | – | – | –
41.6 fold | 1.0 fold | 44.8 fold | CCc1cc(Nc2nccc(-c3c(-c4ccc(OC)c(C(=O)Nc5c(F)cccc5F)c4)nc4ccccn34)n2)c(OC)cc1N1CCC(N2CCN(S(C)(=O)=O)CC2)CC1 [GSK-1904529A] | – | – | –
1.6 fold | 1.0 fold | 66.4 fold | Cn1cc(-c2ccc3nnc(Sc4ccc5ncccc5c4)n3n2)cn1 [SGX-523] | – | – | –
1.1 fold | 302.2 fold | 1.1 fold | CN(NC(=O)CC(=O)NN(C)C(=S)c1ccccc1)C(=S)c1ccccc1 [Elesclomol] | – | – | –
2.6 fold | 0.8 fold | 0.0556 fold | Cn1c(Nc2ccc(C(F)(F)F)cc2)nc2cc(Oc3ccnc(-c4ncc(C(F)(F)F)[nH]4)c3)ccc21 [RAF265 (CHIR-265)] | – | – | –
7.4 fold | 1.0 fold | 9.4 fold | CC1(C)CCC(CN2CCN(c3ccc(C(=O)NS(=O)(=O)c4ccc(NCC5CCOCC5)c([N+](=O)[O-])c4)c(Oc4cnc5[nH]ccc5c4)c3)CC2)=C(c2ccc(Cl)cc2)C1 [ABT-199 (BH3 mimetic)] | – | – | –
0.222 fold | 1.0 fold | 959.3 fold | O=c1cc(-c2cccc3c2Sc2ccccc2S3)oc(N2CCOCC2)c1 [KU-55933] | – | – | –
16.8 fold | 1.0 fold | 0.131 fold | c1cn2cc(-c3ccc4cn[nH]c4c3)nc(Nc3ccc(N4CCOCC4)cc3)c2n1 [Entospletinib (GS-9973)] | – | – | –
11.2 fold | 1.0 fold | 0.0602 fold | NF-kB Activation Inhibitor | – | – | –
– | 0.8 fold | – | O=C(Nc1ccc2[nH]nc(-c3ccncc3)c2c1)[C@@H]1CCN(CC(=O)N2CCN(c3ccc(-c4ncccn4)cc3)CC2)C1 [SCH-772984] | – | – | –
0.3 fold | 1.0 fold | 2.3 fold | CN(C)CC(=O)N1CCC(c2ccc(NC(=O)c3nc(C#N)c[nH]3)c(C3=CCCCC3)c2)CC1 [JNJ-28312141] | – | – | –
1.0 fold | 1.2 fold | 0.0284 fold | CNC(=O)c1cc(Oc2ccc(NC(=O)Nc3ccc(Cl)c(C(F)(F)F)c3)c(F)c2)ccn1 [Regorafenib (BAY 73-4506)] | – | – | –
3.1 fold | 1.0 fold | 1.0 fold | Nc1ncnc2c1c(-c1cccc(OCc3ccccc3)c1)cn2C1CC(CN2CCCC2)C1 (centres unmarked) [NVP-ADW742] | – | – | –

EC50 decrease, fold (Screen N 1) [1] | EC50 decrease, fold (Screen N 2) [2] | EC50 decrease, fold (Screen N 3) [3] | Compound | EC50 decrease, fold (Screen N 1) | EC50 decrease, fold (Screen N 2) | EC50 decrease, fold (Screen N 3)
0.6 fold | 1.0 fold | 1.0 fold | COc1cc(Oc2ccnc3cc(OC)c(OC)cc23)ccc1NC(=O)NC(C)c1nccs1 (centres unmarked) [KI20227] | – | – | –
1.0 fold | 1.0 fold | 1.0 fold | Cc1c[nH]c(-c2cnc(NCCNc3ccc(C#N)cn3)nc2-c2ccc(Cl)cc2Cl)n1 [CHIR-99021] | – | – | –
6.2 fold | 1.0 fold | 121.2 fold | COc1c(Cl)cc2c([nH]c3cnccc32)c1NC(=O)c1cccnc1C [MLN120B] | – | – | –
2.0 fold | 1.1 fold | 0.0683 fold | CN1CC[C@H](c2c(O)cc(O)c3c(=O)cc(-c4ccccc4Cl)oc23)[C@H](O)C1 [Flavopiridol] | – | – | –
9.7 fold | 2.2 fold | 1.1 fold | O=C(NC1CCNCC1)c1[nH]ncc1NC(=O)c1c(Cl)cccc1Cl [AT7519] | – | – | –
0.951 fold | 1.0 fold | 0.374 fold | C[C@H](NC(=O)Cc1cc(F)cc(F)c1)C(=O)N[C@@H]1C(=O)N(C)c2ccccc2-c2ccccc21 [DBZ] | – | – | –
– | 1.0 fold | – | Nc1ncnc2c1nc(Cl)n2[C@@H]1O[C@H](CO)[C@@H](O)[C@H]1O [8-cl-Adenosine] | – | – | –
6.5 fold | 1.5 fold | 1.0 fold | Cn1cnc2c(F)c(Nc3ccc(Br)cc3Cl)c(C(=O)NOCCO)cc21 [Selumetinib (AZD6244)] | – | – | –
10.6 fold | 12.1 fold | 612.9 fold | C=CCNC1=C2C[C@@H](C)C[C@H](OC)[C@H](O)[C@@H](C)/C=C(\C)[C@H](OC(N)=O)[C@@H](OC)/C=C\C=C(/C)C(=O)NC(=CC1=O)C2=O [17-AAG (Tanespimycin)] | – | – | –
1.0 fold | 1.0 fold | 1.0 fold | CCCCCCCCCCCCc1ccc(S(=O)(=O)Nc2nncs2)cc1 [PHT-427] | – | – | –
– | 1.0 fold | – | N#CC[C@H](C1CCCC1)n1cc(-c2ncnc3[nH]ccc23)cn1 [Ruxolitinib (INCB018424)] | – | – | –
0.666 fold | 1.0 fold | 2.2 fold | COc1cc2c(Oc3ccc(NC(=O)C4(C(=O)Nc5ccc(F)cc5)CC4)cc3F)ccnc2cc1OCCCN1CCOCC1 [Foretinib (XL880)] | – | – | –
– | 0.8 fold | – | Cc1noc2c1-c1ccccc1C(c1ccc(Cl)cc1)=N[C@H]2CC(N)=O [CPI-0610] | – | – | –
1.6 fold | 1.0 fold | 1.8 fold | CC(=O)c1c(C)c2cnc(Nc3ccc(N4CCNCC4)cn3)nc2n(C2CCCC2)c1=O [Palbociclib] | – | – | –
1.6 fold | 1.0 fold | 0.9 fold | O=C(c1ccc(/C=C/c2n[nH]c3ccccc23)cc1)N1CCNCC1 [KW-2449] | – | – | –

Compound | EC50 decrease, fold (Screen N 1) [1] | EC50 decrease, fold (Screen N 2) [2] | EC50 decrease, fold (Screen N 3) [3] | EC50 decrease, fold (Screen N 1) | EC50 decrease, fold (Screen N 2) | EC50 decrease, fold (Screen N 3)
CCOc1cc2ncc(C#N)c(Nc3ccc(OCc4ccccn4)c(Cl)c3)c2cc1NC(=O)/C=C/CN(C)C [Neratinib (HKI-272)] | 5.7 fold | 1.0 fold | 1.0 fold | – | – | –
